Experimental data taken from article PMC7921063, “The Effects of Genetic Mutations and Drugs on the Activity of the Thiamine Transporter, SLC19A2” (The AAPS Journal, 2021).
Where two headings read alike, the source gives them in different places.

Target: T1, SLC19A2 (Homo sapiens, UniProt O60779)
T1 sequence (O60779 1-497): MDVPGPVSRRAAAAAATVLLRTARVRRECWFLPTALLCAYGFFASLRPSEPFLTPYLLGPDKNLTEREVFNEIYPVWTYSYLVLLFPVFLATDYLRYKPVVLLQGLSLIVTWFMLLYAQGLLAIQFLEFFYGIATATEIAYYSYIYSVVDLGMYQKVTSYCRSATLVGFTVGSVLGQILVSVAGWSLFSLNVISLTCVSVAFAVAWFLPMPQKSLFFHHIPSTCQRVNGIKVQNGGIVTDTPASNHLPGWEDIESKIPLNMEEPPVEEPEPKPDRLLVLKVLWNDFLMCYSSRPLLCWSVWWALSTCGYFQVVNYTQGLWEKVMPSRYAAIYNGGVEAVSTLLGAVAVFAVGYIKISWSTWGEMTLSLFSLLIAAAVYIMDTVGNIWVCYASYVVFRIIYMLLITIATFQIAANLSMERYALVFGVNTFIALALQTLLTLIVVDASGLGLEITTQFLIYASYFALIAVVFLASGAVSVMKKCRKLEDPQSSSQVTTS
Assay: SLC19A2 inhibitor screen: [3H]-thiamine uptake in SLC19A2-overexpressing HEK293 cells
Assay type: cell-based
Set-up: host or cells: HEK293, stably overexpressing SLC19A2 and transiently transfected with a further 500 ng wild-type plasmid
Conditions: for remaining activity at 1000 µM / inhibition at 1000 µM: HEK293, 10 min; for remaining activity at 1000 µM: read-out: Average % SLC19A2 thiamine uptake; for inhibition at 1000 µM: at 1 mM, read-out: reduction in thiamine transport (designated SLC19A2 inhibitor)
Experimental: Plasmids encoding wild-type SLC19A2 and three TRMA-associated variants were generated by Genscript Inc. (Piscataway, USA). Methods for generation of stably overexpressing SLC19A2 cell lines and uptake studies have been previously described ([11], [12]). Inhibition and kinetic studies were performed in SLC19A2-overexpressing stable HEK293 cells transiently transfected with an additional 500 ng of SLC19A2 wild-type plasmid.
Prescription drugs associated with MA ([2]) in addition to others belonging to listed drug classes (e.g., proton-pump inhibitors; 63 compounds total) were screened in triplicate at 1 mM to evaluate inhibitory activity against SLC19A2. […] Each plate contained control wells exposed for 10 min (within linear range, Supplemental Figure 1) to [^3H]-thiamine (positive control), [^3H]-thiamine plus 1 mM of amprolium (negative control), and [^3H]-thiamine plus 1 mM of screened drug (3 replicates per drug). Methods have been previously described ([11]). SLC19A2 inhibitors were defined as compounds that decreased SLC19A2-mediated thiamine uptake by 50% or more at 1 mM. For compounds that met this definition, inhibition assays were conducted and IC50 values were calculated by nonlinear fitting using GraphPad Prism 7 (La Jolla, CA) ([11]).
Fig. 3 Common mechanisms of drug-induced megaloblastic anemia and SLC19A2 inhibitor drug screen workflow. A list of drugs associated with inducing megaloblastic anemia through various mechanisms was compiled (a). Each drug was dissolved to a final concentration of 1 mM in buffer containing radiolabeled [^3H] thiamine and exposed to HEK293 cells expressing SLC19A2 wild-type transporter for 10 min.

[1] = drug 1 mM, [3H]-thiamine 25 nM, 10 min, HEK293 cells expressing SLC19A2, relative to uptake without inhibitor

Compound	remaining activity at 1000 µM [1]	further results
C[C@H]1c2cccc(O)c2C(=O)C2=C(O)[C@]3(O)C(=O)C(C(N)=O)=C(O)[C@@H](N(C)C)[C@@H]3[C@@H](O)[C@@H]21 [Doxycycline]	67.8%	–
CC1(C)S[C@@H]2[C@H](NC(=O)[C@H](N)c3ccc(O)cc3)C(=O)N2[C@H]1C(=O)O [Amoxicillin]	95.9%	–
O=C(N[C@H](CO)[C@H](O)c1ccc([N+](=O)[O-])cc1)C(Cl)Cl [Chloramphenicol]	91.5%	–
O=c1[nH]cc(F)c(=O)[nH]1 [5-fluorouracil]	93.8%	–
NC(=O)NO [Hydroxyurea]	–	Average % SLC19A2 thiamine uptake [1]: 105.5%
Nc1nc(N)c2nc(CNc3ccc(C(=O)N[C@@H](CCC(=O)O)C(=O)O)cc3)cnc2n1 [Aminopterin]	93%	–
CC[C@H]1OC(=O)[C@H](C)[C@@H](O[C@H]2C[C@@](C)(OC)[C@@H](O)[C@H](C)O2)[C@H](C)[C@@H](O[C@@H]2O[C@H](C)C[C@H](N(C)C)[C@H]2O)[C@](C)(OC)C[C@@H](C)C(=O)[C@H](C)[C@@H](O)[C@]1(C)O [Clarithromycin]	58.2%	–
Nc1ccn([C@@H]2O[C@H](CO)[C@@H](O)C2(F)F)c(=O)n1 [Gemcitabine]	63.3%	–
CC[C@H]1OC(=O)[C@H](C)[C@@H](O[C@H]2C[C@@](C)(OC)[C@@H](O)[C@H](C)O2)[C@H](C)[C@@H](O[C@@H]2O[C@H](C)C[C@H](N(C)C)[C@H]2O)[C@](C)(O)C[C@@H](C)CN(C)[C@H](C)[C@@H](O)[C@]1(C)O [Azithromycin]	81.9%	–
COc1cc(NC(C)CCCN)c2ncccc2c1 (stereo not shown) [Primaquine]	76.5%	–
O=C1CN(/N=C/c2ccc([N+](=O)[O-])o2)C(=O)N1 [Nitrofuranatoin]	–	Average % SLC19A2 thiamine uptake [1]: 101.075%
Neomycin	–	Average % SLC19A2 thiamine uptake [1]: 86.37%
CN(C)[C@@H]1C(O)=C(C(N)=O)C(=O)[C@@]2(O)C(O)=C3C(=O)c4c(O)cccc4[C@@](C)(O)[C@H]3C[C@@H]12 [Tetracycline]	83.6%	–
Nc1nc(F)nc2c1ncn2[C@@H]1O[C@H](CO)[C@@H](O)[C@@H]1O [Fludarabine]	71.1%	–
COc1cc2c(c(OC)c1OC)-c1ccc(OC)c(=O)cc1[C@@H](NC(C)=O)CC2 [Colchicine]	–	remaining activity at 1000 µM: 95.9%
CC1(C)S[C@@H]2[C@H](NC(=O)C(C(=O)O)c3ccccc3)C(=O)N2[C@H]1C(=O)O (stereo partly shown) [Carbenicillin]	90.8%	–
CCCCN(CCCC)CC(O)c1cc(Cl)cc2c1-c1ccc(Cl)cc1/C2=C/c1ccc(Cl)cc1 (stereo not shown) [Lumafantrine]	–	Average % SLC19A2 thiamine uptake [1]: 87.72%
Cn1cnc([N+](=O)[O-])c1Sc1ncnc2nc[nH]c12 [Azathioprine]	87.2%	–
CO[C@H]1O[C@@H]2O[C@@]3(C)CC[C@H]4[C@H](C)CC[C@@H]([C@H]1C)[C@@]24OO3 [Artemether]	67.4%	–
CN/C(=N/CCSCc1nc[nH]c1C)NC#N [Cimetidine]	107%	–
CNC(C)C1CCC(N)C(OC2C(N)CC(N)C(OC3OCC(C)(O)C(NC)C3O)C2O)O1 (stereo not shown) [Gentamicin]	81.9%	–
CC1(C)S[C@@H]2[C@H](NC(=O)[C@H](N)c3ccccc3)C(=O)N2[C@H]1C(=O)O [Ampicillin]	–	remaining activity at 1000 µM: 102%
Cc1cnc(Nc2ccc(OCCN3CCCC3)cc2)nc1Nc1cccc(S(=O)(=O)NC(C)(C)C)c1 [Fedratinib]	21%	inhibition at 1000 µM: ≥ 50%
C[C@]12CC[C@@H]3c4ccc(O)cc4CC[C@H]3[C@@H]1CC[C@@H]2O [Estradiol]	112%	–
Nc1ccc(O)c(C(=O)O)c1 [5-aminosalicylic acid]	87.7%	–
NC(N)=Nc1nc(CSCCC(N)=NS(N)(=O)=O)cs1 [Famotidine]	74%	–
COc1ccc2nc([S@@+]([O-])Cc3ncc(C)c(OC)c3C)[nH]c2c1 [Esomeprazole]	57.7%	–
Cc1onc(-c2ccccc2)c1C(=O)N[C@@H]1C(=O)N2[C@@H]1SC(C)(C)[C@@H]2C(=O)O [Oxacillin]	110%	–
NCC[C@H](O)C(=O)N[C@@H]1C[C@H](N)[C@@H](O[C@H]2O[C@H](CN)[C@@H](O)[C@H](O)[C@H]2O)[C@H](O)[C@H]1O[C@H]1O[C@H](CO)[C@@H](O)[C@H](N)[C@H]1O [Amikacin]	98.7%	–
Oc1ncnc2[nH]ncc12 [Allopurinol]	96.9%	–

More lines, main results first:

remaining activity at 1000 µM [1]	Compound	further results
93.3%	Nc1nc2nc[nH]c2c(=S)[nH]1 [Thioguanine]	–
77.7%	CC(=O)NC[C@H]1CN(c2ccc(N3CCOCC3)c(F)c2)C(=O)O1 [Linezolid]	–
111%	Nc1nc(N)c2nc(-c3ccccc3)c(N)nc2n1 [Triamterene]	–
82.3%	[H]/N=C(/N)N/C(=N/[H])NCCc1ccccc1 [Phenformin]	–
94.8%	COc1ncnc(NS(=O)(=O)c2ccc(N)cc2)c1OC [Sulfadoxine]	–
108%	NNC(=O)c1ccncc1 [Isoniazid]	–
75.3%	COCCCOc1ccnc(C[S+]([O-])c2nc3ccccc3[nH]2)c1C (stereo not shown) [Rabeprazole]	–
68.8%	[H]/N=C(\N/C(=N/[H])Nc1ccc(Cl)cc1)NC(C)C [Proguanil]	–
53%	C=C[C@H]1C[N@@]2CC[C@H]1C[C@@H]2[C@@H](O)c1ccnc2ccc(OC)cc12 [Quinidine]	–
88.2%	Cc1nc2ccc(CN(C)c3ccc(C(=O)N[C@@H](CCC(=O)O)C(=O)O)s3)cc2c(=O)[nH]1 [Raltitrexed]	–
99.2%	CCc1nc(N)nc(N)c1-c1ccc(Cl)cc1 [Pyrimethamine]	–
84.9%	CN(Cc1cnc2nc(N)nc(N)c2n1)c1ccc(C(=O)N[C@@H](CCC(=O)O)C(=O)O)cc1 [Methotrexate]	–
75%	O=C1NC(=O)C(c2ccccc2)(c2ccccc2)N1 [Phenytoin]	–
111%	CNC(=C[N+](=O)[O-])NCCSCc1ccc(CN(C)C)o1 [Ranitidine]	–
95.7%	C/C(O)=C(\C#N)C(=O)Nc1ccc(C(F)(F)F)cc1 [Teriflunomide]	–
56.1%	CO[C@H]1/C=C/O[C@@]2(C)Oc3c(C)c(O)c4c(O)c(c(/C=N/N5CCN(C)CC5)c(O)c4c3C2=O)NC(=O)/C(C)=C\C=C\[C@H](C)[C@H](O)[C@@H](C)[C@@H](O)[C@@H](C)[C@H](OC(C)=O)[C@@H]1C [Rifampicin]	–
57.7%	Cc1oncc1C(=O)Nc1ccc(C(F)(F)F)cc1 [Leflunomide]	–
69.7%	C=C[C@H]1C[N@@]2CC[C@H]1C[C@H]2[C@H](O)c1ccnc2ccc(OC)cc12 [Quinine]	–
45.9%	Cc1c(OCC(F)(F)F)ccnc1C[S+]([O-])c1nc2ccccc2[nH]1 (stereo not shown) [Lansoprazole]	inhibition at 1000 µM: ≥ 50%
90.5%	S=c1[nH]cnc2nc[nH]c12 [Mercaptopurine]	–
101%	O=C(O)c1cc(/N=N/c2ccc(S(=O)(=O)Nc3ccccn3)cc2)ccc1O [Sulfasalazine]	–
82.7%	COc1c(C)c2c(c(O)c1C/C=C(\C)CCC(=O)O)C(=O)OC2 [Mycophenolic acid]	–
74.2%	CN(C)C(=N)N=C(N)N [Metformin]	–
